From PubChem BioAssay (NCI) come the findings set out here.

Structures are written as SMILES. Where “and” joins values, the source holds several entries; their conditions need not be identical. Equal values may be shown once.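 Results reflect a 48-hour exposure of cells in 96-well plates to compound at five concentrations. Abbreviation: GI50, concentration required for 50% inhibition of growth. TGI: concentration producing complete growth inhibition.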

Some test systems named below: OVCAR-8 ovarian; A498 renal; CCRF-CEM leukemia; M14 melanoma; SNB-78 CNS; SK-MEL-2 melanoma; LXFL 529 NSCLC; NCI-H226 lung; SK-MEL-5 melanoma; HOP-18 NSCLC; SF-539 CNS.
What all share (assay): growth of human tumour cells (NCI), 48 h

With `Cc1ccc(/C=C/C(=O)c2cccc3ccccc23)cc1`, the TGI with OVCAR-8 ovarian was found to be 29 µM; in the test with A498 renal, 27.4 µM; in the test on CCRF-CEM leukemia, 67 µM; in the test with M14 melanoma, 39.5 µM; in the test on SNB-78 CNS it was 31.4 µM; with SK-MEL-2 melanoma it was 32.6 µM. The TGI in the test on LXFL 529 NSCLC came to 25.3 µM; in the test with NCI-H226 lung it was 34.3 µM.

As for `C=CC[C@H](C[C@H](C[C@H](C[C@H](C[C@H](C[C@H](C[C@H](C[C@H](C[C@H](C[C@H](CCCCC)OC)OC)OC)OC)OC)OC)OC)OC)OC)OC`, the TGI in the test with OVCAR-8 ovarian, in the test with A498 renal, with CCRF-CEM leukemia, in the test with M14 melanoma, in the test with SNB-78 CNS and in the test on SK-MEL-2 melanoma was more than 100 µM each time. In addition, the TGI in the test with NCI-H226 lung, in the test with SK-MEL-5 melanoma, in the test with HOP-18 NSCLC and in the test on SF-539 CNS was more than 100 µM each time.

Consider `O=c1ccc2ccccc2cc1[O-].O=c1ccc2ccccc2cc1[O-].[O]=[U+2]=[O]`, for which the GI50 in the test on OVCAR-8 ovarian was 8.83 µM; in the test with A498 renal, 18.6 µM; with CCRF-CEM leukemia, 6.14 µM; in the test on M14 melanoma, 16.9 µM; in the test on SK-MEL-2 melanoma it was 11.7 µM; with LXFL 529 NSCLC, 16.8 µM. Also, the GI50 with SK-MEL-5 melanoma is 4.99 µM. The TGI with OVCAR-8 ovarian is 59.9 µM; with A498 renal it was 43.1 µM; in the test with CCRF-CEM leukemia, more than 100 µM; in the test on M14 melanoma, 54.5 µM; in the test on SK-MEL-2 melanoma it was 38.1 µM; with LXFL 529 NSCLC, 51.6 µM. In addition, the TGI in the test with SK-MEL-5 melanoma is 29.4 µM.

As for `Cc1cc2c(C)[nH]nc2c(C(=O)O)c1C`, the TGI in the test on OVCAR-8 ovarian, in the test on A498 renal, with CCRF-CEM leukemia, with SNB-78 CNS, with SK-MEL-2 melanoma and in the test with LXFL 529 NSCLC was more than 100 µM throughout. The compound further showed a TGI with SF-539 CNS of more than 100 µM.

Regarding `CCn1c(-c2nonc2N)nc2c(C#CC(C)(C)O)nc(OC[C@@H](N)c3ccccc3)cc21`, the GI50 is 4.45 µM in the test on OVCAR-8 ovarian; 2.2 µM in the test on A498 renal; 4.08 µM with CCRF-CEM leukemia; 4.52 µM in the test with M14 melanoma; 5.83 µM with SK-MEL-2 melanoma; 11.9 µM in the test with NCI-H226 lung. Moreover, the GI50 in the test with SK-MEL-5 melanoma is 3.99 µM; in the test with SF-539 CNS it was 3.73 µM. The TGI in the test on OVCAR-8 ovarian amounted to 8.83 µM; in the test with A498 renal, 12.4 µM; in the test with CCRF-CEM leukemia, 23.3 µM; in the test with M14 melanoma, 8.11 µM; in the test with SK-MEL-2 melanoma, 10.2 µM; in the test on NCI-H226 lung it was 16.2 µM. In addition, the TGI in the test on SK-MEL-5 melanoma turned out to be 7.37 µM; in the test on SF-539 CNS, 7.71 µM.

With `CN(C)c1cc(NN=C(c2ccc(O)cc2)c2ccc(O)cc2)c([N+](=O)[O-])cc1[N+](=O)[O-]`, the GI50 in the test on OVCAR-8 ovarian is 7.73 µM; in the test on A498 renal, 8.18 µM; in the test with CCRF-CEM leukemia, 2.58 µM; in the test with M14 melanoma, 9.06 µM; in the test with SK-MEL-2 melanoma, 7.45 µM; in the test with NCI-H226 lung it was 13.1 µM. Further, the values for the GI50 with SK-MEL-5 melanoma and with SF-539 CNS were 3.17 µM and 11.8 µM, respectively. For the same compound, the TGI in the test on OVCAR-8 ovarian came to 46.5 µM; in the test with A498 renal, 21.6 µM; in the test on CCRF-CEM leukemia it was 17.9 µM; with M14 melanoma it was 22.6 µM; in the test with SK-MEL-2 melanoma, 22.9 µM; in the test with NCI-H226 lung it was 32.3 µM. The TGI in the test with SK-MEL-5 melanoma is 14.4 µM; in the test with SF-539 CNS, 24.1 µM.

As to `CCN(Cc1ccc(F)cc1)c1cc(Cl)c(CO)c(Cl)c1`, the GI50 was 14.3 µM in the test on OVCAR-8 ovarian; 1.37 µM in the test with A498 renal; 16.8 µM in the test with CCRF-CEM leukemia; 17 µM in the test on M14 melanoma; 15 µM in the test on SK-MEL-2 melanoma; 3.69 µM in the test on NCI-H226 lung. The GI50 in the test on SK-MEL-5 melanoma was 13.5 µM; in the test on SF-539 CNS it was 16.2 µM. The TGI in the test on OVCAR-8 ovarian is 31.3 µM; in the test with A498 renal, 6.39 µM; in the test on CCRF-CEM leukemia it was 47.7 µM; in the test with M14 melanoma, 35 µM; in the test on SK-MEL-2 melanoma it was 29.5 µM; in the test with NCI-H226 lung, 17.1 µM. The TGI was 26.5 µM in the test with SK-MEL-5 melanoma and 30.4 µM in the test with SF-539 CNS.

Regarding `COc1ccc(/C=N/NC(=O)c2cccc3cc[nH]c23)cc1O`, the GI50 with OVCAR-8 ovarian was 6.2 µM; with A498 renal, 4.05 µM; in the test on CCRF-CEM leukemia, 1.93 µM; in the test on M14 melanoma it was 1.13 µM; in the test with SK-MEL-2 melanoma, 18.9 µM; with NCI-H226 lung, 6.28 µM. The GI50 in the test on SK-MEL-5 melanoma was 1.27 µM; in the test on SF-539 CNS, 1.85 µM. Further, the TGI with OVCAR-8 ovarian was more than 100 µM; in the test with A498 renal, 86.1 µM; in the test on CCRF-CEM leukemia it was more than 28.5 µM; with M14 melanoma, more than 100 µM; in the test with SK-MEL-2 melanoma, more than 100 µM; with NCI-H226 lung, more than 33.7 µM. Moreover, the TGI in the test with SK-MEL-5 melanoma was more than 80.7 µM; with SF-539 CNS, more than 100 µM.

As for `N#Cc1c[nH]n2c(N=Nc3ccc(Cl)cc3)c(O)nc12`, the GI50 was 32 µM in the test with OVCAR-8 ovarian; 44.2 µM in the test with A498 renal; 31.1 µM in the test on CCRF-CEM leukemia; 77.3 µM in the test on M14 melanoma; 52 µM in the test with SK-MEL-2 melanoma; 18.5 µM in the test with NCI-H226 lung. In addition, the GI50 is 20.8 µM in the test on SK-MEL-5 melanoma and 26.9 µM in the test with SF-539 CNS. In addition, the TGI with OVCAR-8 ovarian is more than 100 µM; in the test on A498 renal it was 96.3 µM; in the test with CCRF-CEM leukemia it was more than 100 µM; with M14 melanoma it was more than 100 µM; in the test on SK-MEL-2 melanoma it was more than 100 µM; with NCI-H226 lung, 43.3 µM. The results for the TGI in the test on SK-MEL-5 melanoma and with SF-539 CNS were 43.7 µM and 54.1 µM, respectively.

In the case of `O=CNc1ccc2c(c1)C(=O)c1ccccc1-2`, the TGI with OVCAR-8 ovarian, with A498 renal, in the test on CCRF-CEM leukemia, in the test with M14 melanoma, with SK-MEL-2 melanoma and in the test on NCI-H226 lung was more than 100 µM each time. In addition, the TGI in the test on SK-MEL-5 melanoma and with SF-539 CNS was more than 100 µM in each case.

Regarding `CC1=C2C(=C[C@@](C)(CO)[C@@H]2O)C(=O)[C@](C)(O)C12CC2`, the TGI was 0.0311 µM in the test with OVCAR-8 ovarian; 0.0288 µM in the test on A498 renal; 0.0228 µM with M14 melanoma; 0.0297 µM with SK-MEL-2 melanoma; 0.0507 µM and 0.0611 µM with NCI-H226 lung; 0.0183 µM in the test on SK-MEL-5 melanoma. Moreover, the TGI in the test on SF-539 CNS is 0.0181 µM and 0.0175 µM. For the same compound, the GI50 in the test with CCRF-CEM leukemia is 0.342 µM.
